Where a name gives a salt, the structure may show the parent alone. Read-outs that look alike come from different tables or passages of the source.
Columns and labels:
[1] = PK in rats, oral administration; format: in vivo; conditions: male, Sprague-Dawley; for AUC / Cmax / Tmax / half-life: rat plasma; for CL/F / bioavailability: plasma, rat
Experimental: (§1) Pharmacokinetic parameters were determined in male Sprague Dawley rats (Charles River, UK, 250-300 g; or Vital River Laboratory Animal Technology Co Ltd, Beijing, China, 7-9 weeks old). Animals were individually housed during the study and maintained under a 12 h light/dark cycle. Animals had free access to food and water, except that orally dosed animals were food deprived overnight prior to the study. For intravenous administration, compounds were formulated as a solution in DMSO:PBS [10:90] in 2 mL/kg dosing volume and administered via tail vein. For oral administration, compounds were formulated as a solution in DMSO:water [10:90] in 5 mL/kg dosing volume and administered orally. Serial blood samples (about 200-230 μL) were taken from each animal at each of 8 time-points post dose (0.083, 0.25, 0.5, 1, 2, 4, 8 and 24 h). Samples were held on ice for no longer than 30 minutes before centrifugation (10,000 rpm (8,385 g) for 3 minutes; or 5,696 rpm (3,000 g) for 15 minutes) for plasma generation. Plasma was frozen on dry ice prior to bioanalysis. PK parameters were generated from LC-MS/MS data using Dotmatics or Phoenix WinNonlin 6.3 software.

[2] = molecular target: T1, NLRP3 (Homo sapiens, UniProt Q96P20); assay: THP-1 cells pyroptosis assay (LPS + nigericin, resazurin read-out); format: cell-based; parameters: Seed THP-1 cells (25,000 cells/well) containing 1.0 μg/ml LPS; host or cells: THP-1 cells; conditions: NLRP3 inhibitory activity, 1 μg/ml LPS, 5 μM nigericin
T1 sequence (Q96P20 whole entry): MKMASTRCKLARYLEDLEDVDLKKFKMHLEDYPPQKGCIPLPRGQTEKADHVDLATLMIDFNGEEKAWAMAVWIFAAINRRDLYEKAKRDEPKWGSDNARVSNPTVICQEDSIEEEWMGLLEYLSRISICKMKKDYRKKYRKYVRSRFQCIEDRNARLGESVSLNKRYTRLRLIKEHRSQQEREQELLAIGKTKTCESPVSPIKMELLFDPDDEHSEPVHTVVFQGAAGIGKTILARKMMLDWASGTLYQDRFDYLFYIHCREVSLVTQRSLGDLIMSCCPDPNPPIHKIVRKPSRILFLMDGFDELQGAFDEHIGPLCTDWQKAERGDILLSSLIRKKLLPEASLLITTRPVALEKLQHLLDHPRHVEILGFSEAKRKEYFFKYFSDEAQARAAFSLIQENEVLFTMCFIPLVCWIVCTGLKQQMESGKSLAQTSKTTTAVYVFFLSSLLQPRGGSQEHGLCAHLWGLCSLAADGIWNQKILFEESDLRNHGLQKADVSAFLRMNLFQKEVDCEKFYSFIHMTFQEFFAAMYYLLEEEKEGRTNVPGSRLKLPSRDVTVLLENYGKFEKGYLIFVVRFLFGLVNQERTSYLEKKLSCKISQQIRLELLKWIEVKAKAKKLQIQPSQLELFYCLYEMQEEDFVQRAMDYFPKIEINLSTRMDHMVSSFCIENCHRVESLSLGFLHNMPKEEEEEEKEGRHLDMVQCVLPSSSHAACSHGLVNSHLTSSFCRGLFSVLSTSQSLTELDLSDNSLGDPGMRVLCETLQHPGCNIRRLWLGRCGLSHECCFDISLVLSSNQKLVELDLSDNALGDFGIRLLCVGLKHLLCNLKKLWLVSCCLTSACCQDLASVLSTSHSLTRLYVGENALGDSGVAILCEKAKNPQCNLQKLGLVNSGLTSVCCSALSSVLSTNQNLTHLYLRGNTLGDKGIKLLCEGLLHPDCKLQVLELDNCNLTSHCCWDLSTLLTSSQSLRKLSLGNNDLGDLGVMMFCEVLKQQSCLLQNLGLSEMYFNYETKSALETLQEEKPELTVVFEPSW
How it was run: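 THP-1 cells in serum-free RPMI were primed with 1 μg/ml LPS and incubated 3 h at 37° C with compound, then given 5 μM nigericin for 1 h. After supernatant removal, viability was read by 100 μM resazurin over 1-2 h at 37° C.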

[3] = molecular target: T1, NLRP3; assay: Human whole blood IL-1β release assay (LPS + nigericin, AlphaLisa); format: cell-based; parameters: Human whole blood in Li-heparin tubes was obtained from healthy donors; from tissue; host or cells: human whole blood from healthy donors; conditions: NLRP3 inhibitory activity, 1 μg/ml LPS, 10 μM nigericin, read-out: HWB IC50
Experimental: For systemic delivery, the ability to inhibit NLRP3 when the compounds are present within the bloodstream is of great importance. For this reason, the NLRP3 inhibitory activity of a number of compounds in human whole blood was investigated in accordance with the following protocol. Human whole blood in Li-heparin tubes was obtained from healthy donors from a volunteer donor panel. • 1. […] Incubate for 3 hrs at 37° C., 5% CO2 • 4. Add 10 μl nigericin (Sigma #N7143) (10 μM FAC) to all wells • 5. Incubate for 1 hr at 37° C., 5% CO2 • 6. At the end of the incubation period, spin plates at 300×g for 5 mins to pellet cells and remove 20 μl of supernatant and add to 96-well v-bottom plates for IL-1β analysis (note: these plates containing the supernatants can be stored at -80° C. to be analysed at a later date) • 7. IL-1β was measured according to the manufacturer protocol (Perkin Elmer-AlphaLisa IL-1 Kit A[…]-5000) • 8.

[4] = PK in rats, intravenous administration; format: in vivo; conditions: male, Sprague-Dawley; for AUC / half-life: rat plasma; for clearance / Vd: plasma, rat; for Vd: read-out: Vdss
Experimental: as §1

| SMILES | AUC ([1]; 3 mg/kg) | Cmax ([1]; 3 mg/kg) | Tmax ([1]; 3 mg/kg) | half-life ([1]; 3 mg/kg) | CL/F ([1]; 3 mg/kg) | IC50 [2] | IC50 [3] | also measured |
| --- | --- | --- | --- | --- | --- | --- | --- | --- |
| CCn1ccc(S(=O)(=O)NC(=O)Nc2c3c(cc4c2CCC4)CCC3)n1 [Example 45, 1-Ethyl-N-((1,2,3,5,6,7-hexahydro-s-indacen-4-yl)carbamoyl)-1H-pyrazole-3-sulfonamide, sodium salt] | 61600 ng·h/mL | 7900 ng/mL | 2 h | 2.5 h | 0.8 mL/min/kg | < 250 nM | 1000 to 5000 nM | – |
| COC(C)(C)c1cc(S(=O)(=O)NC(=O)Nc2c3c(cc4c2CCC4)CCC3)nn1C [Example 39, N-((1,2,3,5,6,7-Hexahydro-s-indacen-4-yl)carbamoyl)-5-(2-methoxypropan-2-yl)-1-methyl-1H-pyrazole-3-sulfonamide] | 3920 ng·h/mL | 1370 ng/mL | 0.83 h | 2.2 h | 13 mL/min/kg | < 250 nM | 500 to 1000 nM | AUC ([4]; 3 mg/kg): 3840 ng·h/mL; half-life ([4]; 3 mg/kg): 4 h; clearance ([4]; 3 mg/kg): 13.1 mL/min/kg; Vd ([4]; 3 mg/kg): 0.9 L/kg; bioavailability ([1]; 3 mg/kg): > 100% |
| COC(C)(C)c1cc(S(=O)(=O)NC(=O)Nc2c(C(C)C)cc(Cl)cc2C(C)C)nn1C [Example 83, N-((4-Chloro-2,6-diisopropylphenyl)carbamoyl)-5-(2-methoxypropan-2-yl)-1-methyl-1H-pyrazole-3-sulfonamide] | – | – | – | – | – | < 250 nM | 1000 to 5000 nM | AUC ([4]; 1 mg/kg): 1130 ng·h/mL; half-life ([4]; 1 mg/kg): 3.9 h; clearance ([4]; 1 mg/kg): 14.8 mL/min/kg; Vd ([4]; 1 mg/kg): 2.23 L/kg; AUC ([1]; 1.3 mg/kg): 2750 ng·h/mL; Cmax ([1]; 1.3 mg/kg): 468 ng/mL; Tmax ([1]; 1.3 mg/kg): 3.17 h; half-life ([1]; 1.3 mg/kg): 3.7 h; CL/F ([1]; 1.3 mg/kg): 8.5 mL/min/kg; bioavailability ([1]; 1.3 mg/kg): > 100% |

From patent publication US20220106289A1, “NLRP3 INHIBITORS” (INFLAZOME LIMITED, priority 2018, published 2022)
